Measured values taken from patent US20100048714A1, “Methods and Compositions Related to Inhibition of Ceramide Synthesis” (University of Utah Research Foundation, priority 2006, published 2010).

What was measured:
Sprague-Dawley rats [1] = assay: Liver ceramide and ceramide-enzyme expression in dexamethasone-treated rats; type: in vivo, rat; conditions: dexamethasone 40 μg/Kg IP every 12 hours for 36 hours; myriocin 300 μg/Kg IP for two weeks prior
Experimental: (A) Sprague-Dawley rats were treated with myriocin (300 μg/Kg, IP, solid bars) or saline (open bars) for two weeks prior to giving administering dexamethasone (40 μg/Kg, IP) or vehicle (5% ethanol) every 12 hours for 36 hours. Animals were euthanized by CO2 inhalation, livers were removed, and ceramide levels were assessed as described in SOM-Methods. Shown are mean ceramide levels+/−S.E.M, n=6 per group. The asterisk denotes that the sample was statistically different from vehicle-treated controls, p<0.05, student's t-test. (B) Livers were obtained as in A, above, and protein and mRNA were extracted as described in SOM-Methods. Levels of transcripts (solid bars) encoding serine palimitoyl transferase isoforms 1 and 2 (SPT1 and SPT2), dihydroceramide synthases (DCS) TL1, UOG, and TRH3, glucosylceramide synthase (GCS), and acid ceramidase (AC) transcripts were obtained by reverse-transcriptase polymerase chain reaction, normalized to β-actin. SPT2 protein levels (white bars) were detected by immunoblotting with an antibody from Cayman Chemicals (Ann Arbor, Mich.) and quantified on a Kodak Image Station 2000R (Rochester, N.Y.). […] (E) The glucose infusion rate required to maintain normal glycemia during insulin infusion (4mU/kg/min) was calculated as the average infusion rate during the 60 minute steady state. […]

Sprague-Dawley rats [2] = assay: Lipid infusion with hyperinsulinemic euglycemic clamps; type: in vivo, rat; conditions: for Glucose, During Clamp / FFA, Before Clamp / FFA, Before Infusion / FFA, During Clamp / Glucose, Before Clamp / Glucose, Before Infusion / Insulin, Before Clamp / Insulin, Before Infusion / Insulin, During Clamp: plasma, mean ± standard error, n=4; for Glucose, During Clamp: 30 minute steady state
Excerpt: The more common mechanism by which insulin resistance likely develops in the obese is through the accumulation of fats in tissues not-suited for lipid storage. Indeed, intramyocellular lipid levels inversely correlate with insulin sensitivity, and are one of the best predictors of insulin resistance in humans. To mimic this condition in rats, a 20% lard oil-heparin infusate was delivered into the bloodstream of Sprague-Dawley rats via jugular catheters. […] To assess muscle insulin sensitivity during the infusion, hyperinsulinemic-euglycemic clamps were performed on conscious, unrestrained rats during the terminal 90 minutes of the protocol. Lard oil infusion decreased insulin-stimulated glucose disposal to 47% of glycerol treated control subjects (FIG. 3C). […] Differences in the glucose infusion rats could not be accounted for by the slight differences in the glucose concentration that was achieved during the clamp nor to differences in steady-state insulin concentrations (Table 3).
Male Sprague-Dawley rats (˜250 grams) were randomly divided into nine different groups. Glycerol, 20% lard oil, or 20% soy oil emulsions were prepared as previously described (Stein 1997) and infused at a constant rate of 5 mL/Kg/hour. To activate lipoprotein lipase, heparin (6 units/hour) was added to the triglyceride emulsions. Lipids were infused in animals treated with control injections (normal saline), myriocin (100 μg/Kg IP) or cycloserine (50 mg/Kg IP). Drugs were given 12 hours prior to lipid infusion and equivalent doses were given intravenously at the time of infusion. […] Following lipid infusion animals were deeply anesthetized with sodium pentobarbital and soleus muscles were rapidly dissected out and rapidly frozen in liquid nitrogen.
Clamps were performed in conscious unrestrained animals using swivels and tethers (Instech, Plymouth Meeting, Pa.) to allow uninterrupted movement of the animal without disruption of infusion lines. Hyperinsulinemia was initiated by intravenous infusion of insulin (10 mU/kg/min at a flow rate of 4 μL/min).

[3] = Intralipid infusion, with or without myriocin or cycloserine
[4] = lard oil infusion, with or without myriocin or cycloserine

`CCCCCCC(=O)CCCCCC/C=C/C[C@@H](O)[C@H](O)[C@@](N)(CO)C(=O)O` [Myriocin] was tested, and the “ceramide levels in the liver” value (Sprague-Dawley rats [1]) was “Reducing ceramide levels”, the “insulin-stimulated glucose disposal / insulin resistance” value (Sprague-Dawley rats [2]; [3]) was “Neither myriocin nor cycloserine prevented” and the “muscle DAG levels” value (Sprague-Dawley rats [2]; [3]) was “Neither myriocin nor cycloserine prevented”. For the same compound, the “ceramide in skeletal muscle” value (Sprague-Dawley rats [2]; [4]) was “blocked ceramide synthesis”, the “diacylglycerol (DAG) in muscle” value (Sprague-Dawley rats [2]; [4]) was “Neither myriocin nor cycloserine reduced DAG” and the “glucose utilization in clamp” value (Sprague-Dawley rats [2]; lard-infused animals) was “restored glucose utilization”. The “Glucose, During Clamp” value (Sprague-Dawley rats [2]; Lipid: Glycerol) was 111.2 ± 6.6 mg/dL, the “Glucose, During Clamp” value (Sprague-Dawley rats [2]; Lipid: Lard oil (PBS or drug)) was 108.4 ± 1.0 mg/dL and the “Glucose, During Clamp” value (Sprague-Dawley rats [2]; Lipid: Soy oil (PBS or drug)) was 108.3 ± 0.4 mg/dL. The “FFA, Before Clamp” value (Sprague-Dawley rats [2]; Lipid: Glycerol) was 0.455 ± 0.13 mM, the “FFA, Before Infusion” value (Sprague-Dawley rats [2]; Lipid: Glycerol) was 1.22 ± 0.25 mM and the “FFA, During Clamp” value (Sprague-Dawley rats [2]; Lipid: Glycerol) was 0.872 ± 0.75 mM. The “Glucose, Before Clamp” value (Sprague-Dawley rats [2]; Lipid: Glycerol) was 117.7 ± 9.1 mg/dL, the “Glucose, Before Infusion” value (Sprague-Dawley rats [2]; Lipid: Glycerol) was 103.0 ± 10.6 mg/dL and the “Insulin, Before Clamp” value (Sprague-Dawley rats [2]; Lipid: Glycerol) was 1.90 ± 0.71 ng/mL. For the same compound, the “Insulin, Before Infusion” value (Sprague-Dawley rats [2]; Lipid: Glycerol) was 0.436 ± 0.03 ng/mL, the “Insulin, During Clamp” value (Sprague-Dawley rats [2]; Lipid: Glycerol) was 8.02 ± 2.52 ng/mL and the “FFA, Before Clamp” value (Sprague-Dawley rats [2]; Lipid: Lard oil (PBS or drug)) was 1.52 ± 0.49 mM. The “FFA, Before Infusion” value (Sprague-Dawley rats [2]; Lipid: Lard oil (PBS or drug)) was 0.912 ± 0.30 mM, the “FFA, During Clamp” value (Sprague-Dawley rats [2]; Lipid: Lard oil (PBS or drug)) was 2.427 ± 0.30 mM and the “Glucose, Before Clamp” value (Sprague-Dawley rats [2]; Lipid: Lard oil (PBS or drug)) was 123.3 ± 3.8 mg/dL. For the same compound, the “Glucose, Before Infusion” value (Sprague-Dawley rats [2]; Lipid: Lard oil (PBS or drug)) was 101.0 ± 11.4 mg/dL, the “Insulin, Before Clamp” value (Sprague-Dawley rats [2]; Lipid: Lard oil (PBS or drug)) was 1.90 ± 0.50 ng/mL and the “Insulin, Before Infusion” value (Sprague-Dawley rats [2]; Lipid: Lard oil (PBS or drug)) was 0.407 ± 0.47 ng/mL. For the same compound, the “Insulin, During Clamp” value (Sprague-Dawley rats [2]; Lipid: Lard oil (PBS or drug)) was 17.02 ± 3.79 ng/mL, the “FFA, Before Clamp” value (Sprague-Dawley rats [2]; Lipid: Soy oil (PBS or drug)) was 1.58 ± 0.57 mM and the “FFA, Before Infusion” value (Sprague-Dawley rats [2]; Lipid: Soy oil (PBS or drug)) was 1.01 ± 0.10 mM. For the same compound, the “FFA, During Clamp” value (Sprague-Dawley rats [2]; Lipid: Soy oil (PBS or drug)) was 1.80 ± 0.44 mM, the “Glucose, Before Clamp” value (Sprague-Dawley rats [2]; Lipid: Soy oil (PBS or drug)) was 105.0 ± 4.6 mg/dL and the “Glucose, Before Infusion” value (Sprague-Dawley rats [2]; Lipid: Soy oil (PBS or drug)) was 109.3 ± 10.4 mg/dL. The “Insulin, Before Clamp” value (Sprague-Dawley rats [2]; Lipid: Soy oil (PBS or drug)) was 2.46 ± 1.1 ng/mL, the “Insulin, Before Infusion” value (Sprague-Dawley rats [2]; Lipid: Soy oil (PBS or drug)) was 0.305 ± 0.08 ng/mL and the “Insulin, During Clamp” value (Sprague-Dawley rats [2]; Lipid: Soy oil (PBS or drug)) was 11.55 ± 2.91 ng/mL.
